Measurements from ChEMBL document CHEMBL2074441, “Identification of breast cancer resistant protein/mitoxantrone resistance/placenta-specific, ATP-binding cassette transporter as a transporter of NB-506 and J-107088, topoisomerase I inhibitors with an indolocarbazole structure” (Cancer Res, 2001).

Legend:
[1] = target: T1, Broad substrate specificity ATP-binding cassette transporter ABCG2 (Mus musculus, UniProt Q7TMS5); test: TP_TRANSPORTER: intracellular accumulation in LY and LY/NR2 cells; type: functional, cell-based
T1 sequence (Q7TMS5 whole entry): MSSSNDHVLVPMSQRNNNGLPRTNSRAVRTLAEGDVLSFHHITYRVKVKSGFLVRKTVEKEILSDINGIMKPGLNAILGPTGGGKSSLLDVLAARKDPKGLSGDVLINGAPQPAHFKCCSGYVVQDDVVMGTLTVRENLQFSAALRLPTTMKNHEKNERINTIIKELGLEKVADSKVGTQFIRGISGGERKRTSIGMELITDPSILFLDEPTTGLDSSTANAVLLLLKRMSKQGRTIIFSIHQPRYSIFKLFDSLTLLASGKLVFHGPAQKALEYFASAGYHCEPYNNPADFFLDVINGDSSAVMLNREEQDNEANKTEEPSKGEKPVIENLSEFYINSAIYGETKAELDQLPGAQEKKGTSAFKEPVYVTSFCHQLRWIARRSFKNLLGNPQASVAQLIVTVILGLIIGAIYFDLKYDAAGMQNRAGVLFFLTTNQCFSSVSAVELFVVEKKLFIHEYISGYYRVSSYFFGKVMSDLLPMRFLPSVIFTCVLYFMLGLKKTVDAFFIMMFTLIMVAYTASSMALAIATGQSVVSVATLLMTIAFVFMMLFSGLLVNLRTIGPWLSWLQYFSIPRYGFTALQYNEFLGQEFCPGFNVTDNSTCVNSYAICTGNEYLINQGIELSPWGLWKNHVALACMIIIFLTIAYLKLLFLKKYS

[2] = target: T2, Broad substrate specificity ATP-binding cassette transporter ABCG2 (Homo sapiens, UniProt Q9UNQ0); test: TP_TRANSPORTER: intracellular accumulation in BCRP-transfected PC-13 cells; type: functional, cell-based
T2 sequence (Q9UNQ0 whole entry): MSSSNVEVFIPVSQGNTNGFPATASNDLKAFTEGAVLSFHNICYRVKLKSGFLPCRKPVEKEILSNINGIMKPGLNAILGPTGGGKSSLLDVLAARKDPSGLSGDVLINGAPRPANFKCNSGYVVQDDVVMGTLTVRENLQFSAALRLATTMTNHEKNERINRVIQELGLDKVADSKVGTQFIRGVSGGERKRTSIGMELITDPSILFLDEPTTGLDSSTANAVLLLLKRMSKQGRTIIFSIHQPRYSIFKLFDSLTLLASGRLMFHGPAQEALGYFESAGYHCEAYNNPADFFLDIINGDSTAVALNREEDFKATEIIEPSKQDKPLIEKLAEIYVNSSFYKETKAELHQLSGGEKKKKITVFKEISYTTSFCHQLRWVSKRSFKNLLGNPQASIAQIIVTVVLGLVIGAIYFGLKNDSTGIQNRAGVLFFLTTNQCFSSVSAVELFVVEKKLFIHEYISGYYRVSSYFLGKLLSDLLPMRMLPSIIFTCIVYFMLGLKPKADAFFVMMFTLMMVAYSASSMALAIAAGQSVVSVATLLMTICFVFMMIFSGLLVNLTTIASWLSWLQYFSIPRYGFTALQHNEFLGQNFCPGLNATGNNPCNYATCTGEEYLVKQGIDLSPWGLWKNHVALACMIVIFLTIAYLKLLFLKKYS

| Activity [1] | SMILES | Activity [2] |
| --- | --- | --- |
| substrate [+] | O=CNN1C(=O)c2c(c3c4cccc(O)c4n([C@@H]4O[C@H](CO)[C@@H](O)[C@H](O)[C@H]4O)c3c3[nH]c4c(O)cccc4c23)C1=O |  |
|  | O=C1c2c(c3c4ccc(O)cc4n([C@@H]4O[C@H](CO)[C@@H](O)[C@H](O)[C@H]4O)c3c3[nH]c4cc(O)ccc4c23)C(=O)N1NC(CO)CO [EDOTECARIN] | substrate [+] |
